Here are results for three compounds from patent US8906416B2, “Xanthenedione derivatives for the treatment of pigmentation and skin ageing disorders” (Pierre Fabre Dermo-Cosmetique, priority 2010, dated 2014).

The subject of assay [1] is Melanoderm A (Asian) reconstructed epidermis. Description: Reconstructed epidermis depigmenting activity, Melanoderm A. The assay is classed as cell-based. An excerpt: (§1) The compounds of examples 8 and 21 were formulated at the concentration of 0.5% in a Simplex formula according to the example of composition A. Melanoderm-B (Black) or Melanoderm A (Asian) (MatTek, USA) reconstructed epidermis models were used. The reference compound chosen is kojic acid titrated to 2% in aqueous solution. The culture medium is changed every day. The products are applied by topical mode on the epidermis every two days. For the application, the epidermises are rinsed with PBS and the product to be tested is then applied. A preliminary toxicity study made it possible to determine that the dose to apply for each treatment is 25 μL. The tissues were observed on D3, D7, D10, D14 (Melanoderm B) or D6, D10, D14 and D21 (Melanoderm A) by 3 independent experts. The formula containing example 8 was also tested in a Melanoderm-A (Asian) model. The coloration of the epidermis is compared to that of the simplex control formula.

For assay [2], the system named is Melanoderm-B (Black) reconstructed epidermis. Kind of assay: Reconstructed epidermis depigmenting activity, Melanoderm-B. The class given is cell-based. Particulars: D3, D7, D10 and D14, 0.5% in Simplex formula.
From the text: as §1, with “experts.” for “experts. The formula containing example 8 was also tested in a Melanoderm-A (Asian) model. The coloration of the epidermis is compared to that of the simplex control formula.”

A further assay has as its system B16-F10 cells. Description: Melanin assay test in B16-F10 cells. Particulars: Mus musculus, B16-F10; 0.1 μM α-MSH stimulated, 72 hours treatment; read-out: Results activity B16-F10 IC50 (50% melanin synthesis inhibition). The class given is cell-based, murine. As to the method:
This involves a test of measuring the synthesis of melanin by colorimetric assay on a murine melanoma cell line: the B16-F10 line. This test enables the depigmenting power of active ingredients to be evaluated.
The B16-F10 cells are cultured in 96-well plates in DMEM medium, supplemented with FCS (foetal calf serum), and incubated 24 hours at 37° C., 5% CO2. The cells are then stimulated with 0.1 μM α-MSH (to stimulate the synthesis of melanin, the stimulation observed is around 150%) and treated 72 hours with the active ingredients to be tested. Each concentration of active ingredient is tested at least in triplicate. The total melanin followed by the intracellular melanin dissolved in the lysis buffer are then assayed by absorbance reading at 405 nm. The total proteins are assayed in the lysate and the results are expressed in mg melanin/mg proteins. The percentage of activity is calculated as follows:
[formula] A negative value indicates an inhibition, whereas a positive value indicates an induction of the synthesis of melanin. General Experimental Conditions: • Equipment: • CO2 cell incubator (Heraeus), Oven, Centrifuge (Heraeus), Laminar air flow fume hood, 96-well clear bottomed plates—Falcon, sterile cones—Treff Lab, Polylabo, Mithras LB940 (Berthold Technologies)-154/MIPA/003 Biological Equipment: • B16-F10 cell line between P10 and P20 (murine melanocytes) (ATCC, CRL-6475) • Reagents • DMEM without phenol red (GIBCOBRL, 31053-028), 200 mM Glutamax-I Supplement (GIBCOBRL, 35050-038), D-PBS (GIBCOBRL, 14190-094), Foetal calf serum (Invitrogen, 10270-098), Trypsine-EDTA (GIBCOBRL, 25300-054), NaOH (Sigma, S8045-500G), DMSO (Sigma, 471267-1L), Nle, Phe—Melanocyte Stimulating Hormone (Sigma, M-8764), Melanin (Sigma, M-0418), BCA-COPPER (SIGMA, B9643 AND C2284), BSA (SIGMA, P0914) B) Test for the Study of the Antioxidant Capacity by Chemiluminescence (Photochem Analytik Jena) Principle: […]

The conditions of assay [3]: reference products of the interpretation scale; cited from earlier work.

As to `CCCCCCCCCCCCCCCC(=O)Oc1ccc(C2C3=C(CC(C)(C)CC3=O)OC3=C2C(=O)CC(C)(C)C3)cc1OC` [Example 8, 2-methoxy-4-(3,3,6,6-tetramethyl-1,8-dioxo-2,3,4,5,6,7,8,9-octahydro-1H-xanthen-9-yl)phenyl palmitate], in assay [1] (0.5% in Simplex formula), the “Melanin assay: reduction of melanin with respect to epidermises treated by the Simplex control formula” value was determined as 4.1 µg. Further, the “Coloration of the epidermis compared to the simplex control formula” value in assay [1] (D6, D10, D14, D21, 0.5% in Simplex formula) is listed as “macroscopic depigmenting effect”. In assay [2], the “Coloration of the epidermis compared to negative control (water)” value is “macroscopic depigmenting effect”.

`COc1cc(C2C3=C(CC(C)(C)CC3=O)OC3=C2C(=O)CC(C)(C)C3)ccc1O[C@@H]1OC(CO)[C@@H](O)C(O)C1O` (stereo in doubt) [Example 21, 9-(3-methoxy-4-((3S,4 S,5S)-3,4,5-trihydroxy-6-(hydroxymethyl)tetrahydro-2H-pyran-2-yloxy)phenyl)-3,3,6,6-tetramethyl-3,4,5,6,7,9-hexahydro-1H-xanthene-1,8(2H)-dione]: the half-inhibitory concentration (IC50) in the assay on B16-F10 cells was determined as 69 µM. The “Coloration of the epidermis compared to negative control (water)” value in assay [2] is on record as “macroscopic depigmenting effect”.

As for `O=C(O)CCCC[C@@H]1CCSS1` (racemic) [Lipoic acid], in assay [3], the “Activity (scale for interpreting the results)” value is on record as “Nil” and the “μg sample for 1 μg of Trolox (scale for interpreting the results)” value is listed as “Negative”.

For orientation: IC50 means the midpoint of a concentration-inhibition curve.
